Results as given in patent publication EP0109697B1, “Rodent bait” (priority 1982, dated 1984).

Experiments:
[1] = test system: female 300-350 gram Wistar rats; assay: Feeding test of mouse bait particles on rats (Example 8); type: in vivo, rat; conditions: for Mouse bait particles Rat Kill: 0.1 mg aldicarb particles, one per two grams of oatmeal (50 ppm), five female Wistar rats
Experimental: (§1) Particles of a size suitable for consumption whole (without nibbling) by mice, i.e. about 0.5 mm diameter spheres, containing 0.1 mg of aldicarb per particle were produced by a precipitation process.
(§2) The mouse bait particles were distributed in medium oatmeal at the concentration of one per two grams of oatmeal (50 ppm), and the rat bait particles were distributed in medium oatmeal at the concentration of one per twenty grams of oatmeal (50 ppm).
(§3) Ten male 12-18 gram LAC mice and five female 300-350 gram Wistar rats were permitted to feed on the mouse bait; and five female 300-350 gram Wistar rats were allowed to feed on the rat bait. The baits were topped up when necessary to keep a supply of food material available, and water was supplied freely.

[2] = test system: mice with a body weight approximately 20 g; assay: No-choice feeding test of three 100 ppm aldicarb presentations (Example 9), mice; type: in vivo, mouse; conditions: for Mouse Kill %: no choice, after 5 days
Experimental: (§4) Three baits were produced containing the toxicant aldicarb, each at 100 ppm (0.01%) concentration. Aldicarb was presented in the bait either homogeneously dispersed in the manner of a conventional rodenticide, as discrete 0.4 x 0.4 mm particles, (formulation C) or as discrete 1.0 x 1.0 mm particles. The diluent was medium grade oatmeal in all cases. Tests were carried out on mice with a body weight approximately 20 g, rats with a body weight approximately 250 g, and rabbits with a body weight approximately 2,500 g.
(§5) Baits were offered with no choice of alternative food for five days.

female Wistar rats = assay: Feeding test of totally homogeneous aldicarb bait (Example 1), rats; type: in vivo, rat; conditions: for Kill Rat: 100 ppm aldicarb in medium oatmeal, 5 female Wistar rats
Source text: (§6) Except where otherwise stated, baits according to the invention were produced by thoroughly hand mixing the particles with medium oatmeal, and the baits were fed to caged rats and mice as the sole feed. Water was made freely available to them. The baits remaining in each cage were weighed daily, and fresh baits provided each day.
(§7) Totally homoneneous baits were produced by slurrying an acetone solution of aldicarb on medium oatmeal to give a concentrate, then diluting the concentrate with medium oatmeal by hand mixing, to give an aldicarb concentration of 100 ppm. The toxicity of the resulting bait was determined by tests on 5 female Wistar rats and 10 male LACA mice.

male LACA mice [3] = assay: Feeding test of formulation A 0.5 mg particles in oatmeal (Example 4); type: in vivo, mouse; conditions: 10 male LACA mice
Experimental: as §6
10 Male LACA mice were fed with bait consisting of medium oatmeal containing one 0.5 mg particle made according to formulation A per 10 grams of oatmeal.

[4] = test system: rats with a body weight approximately 250 g; assay: No-choice feeding test of three 100 ppm aldicarb presentations (Example 9), rats; type: in vivo, rat; conditions: after 5 days
Experimental: as §4, §5

male 12-18 gram LAC mice = assay: Feeding test of mouse bait particles on mice (Example 8); type: in vivo; conditions: for Mouse bait particles Mouse Kill: 0.1 mg aldicarb particles, one per two grams of oatmeal (50 ppm), ten male LAC mice
Experimental: as §1, §2, §3

Rats [5] = assay: Determination of optimum particle size (Example 10), rats; type: in vivo, rat; conditions: formulation C, one particle per 10 g diet base, after 5 days
Source text: (§8) Rats were offered medium oatmeal diet containing aldicarb particles (formulation C) at the rate of one per 10 g diet base and mice were offered the particles at the rate of one per 4 g diet base.

[6] = test system: Male heterozygous resistant rats; assay: Feeding test of formulation B 1.1 mg particles in oatmeal (Example 7); type: in vivo, rat; conditions: 50 g medium oatmeal with 10 particles of formulation B, 1.1 mg aldicarb each; 3 male heterozygous resistant rats; Day 1
Experimental: as §6
3 Male heterozygous resistant rats were permitted to feed on 50 g medium oatmeal containing 10 particles of formulation B each containing 1.1 mg of aldicarb.

male LACA mice [7] = assay: Feeding test of totally homogeneous aldicarb bait (Example 1), mice; type: in vivo, mouse; conditions: for Kill Mouse: 100 ppm aldicarb in medium oatmeal, 10 male LACA mice
Source text: as §6, §7

[8] = test system: rabbits with a body weight approximately 2,500 g; assay: in vivo; type: in vivo, rabbit; conditions: 100 ppm aldicarb; any of the three formulations
Experimental: as §4, §5

in vivo = type: in vivo, rabbit; conditions: rabbit, in vivo, po; 100 ppm as HOMOGENEOUS; no choice, after 5 days; read-out: Rabbit Kill %
Experimental: as §4, §5

[9] = test system: female 300-350 gram Wistar rats; assay: Feeding test of rat bait particles on rats (Example 8); type: in vivo; conditions: for Rat bait particles Rat Kill: 1.0 mg aldicarb particles, one per twenty grams of oatmeal (50 ppm), five female Wistar rats
Experimental: Suitably larger particles appropriate for rats, i.e. about 1 mm x 1 mm cylinders, containing 1.0 mg of aldicarb per particle were produced by extrusion.
as §2, §3

male LACA mice [10] = assay: Feeding test of formulation B 0.2 mg particles in oats (Example 6); type: in vivo, mouse; conditions: 50 g medium oats with 10 particles of formulation B, 0.2 mg aldicarb each; 5 male LACA mice starved for 24 hours; Day 1
Experimental: as §6
5 Male LACA mice were starved for 24 hours and then permitted to feed on 50 g of medium oats containing dispersed therein 10 particles of formulation B each containing 0.2 mg of aldicarb.

mice [11] = assay: Determination of optimum particle size (Example 10), mice; type: in vivo, mouse; conditions: formulation C, one particle per 4 g diet base, after 5 days
Source text: as §8

[12] = test system: Heterozygous anti-coagulant resistant rats; assay: Feeding test of formulation A 1.25 mg particles in oatmeal (Example 3); type: in vivo, rat; conditions: one 1.25 mg particle per 20 grams of oatmeal, bait not changed daily, 5 heterozygous anti-coagulant resistant rats
Experimental: as §6
5 Heterozygous anti-coagulant resistant rats were allowed to feed on bait consisting of medium oatmeal containing one 1.25 mg particle made to formulation A per 20 grams of oatmeal. The bait was weighed daily, but in this example it was not changed daily.

Wistar females = assay: Feeding test of formulation A 1.25 mg particles in oatmeal (Example 2); type: in vivo, rat; conditions: one 1.25 mg pellet per 20 grams of oatmeal, 5 Wistar females
Experimental: as §6
The toxicity of aldicarb particles made to formulation A was determined by tests on 5 Wistar females exposed to medium oatmeal containing one 1.25 mg pellet per 20 grams of oatmeal.

male LACA mice [13] = assay: Feeding test of formulation A 0.2 mg particles in oatmeal (Example 5); type: in vivo, mouse; conditions: 10 male LACA mice
Experimental: as §6
10 Male LACA mice were permitted to feed on bait consisting of medium oatmeal containing one 0.2 mg particle of formulation A per-2 grams of oatmeal.

Rats [14] = assay: Feeding trials with various acute poisons in formulation C particles (Example 11), rats; type: in vivo; conditions: RAT, formulation C particle 1.5 × 1.5 mm
Experimental: (§9) Particles containing various acute poisons were made according to Formulation C, and feeding trials were carried out with rats and with mice.

mice [15] = assay: Feeding trials with various acute poisons in formulation C particles (Example 11), mice; type: in vivo; conditions: MOUSE; formulation C particle 0.45 × 0.45 mm; bait conc. 22.5 ppm
Experimental: as §9

[16] = 100 ppm as 0.4 × 0.4 mm particles (formulation C)
[17] = 100 ppm as 1.0 × 1.0 mm particles
[18] = formulation A 0.5 mg aldicarb particles, 4 days

Structure (SMILES): CNC(=O)O/N=C/C(C)(C)SC [aldicarb, 2 methyl-2-(methylthio) propionaldehyde 0-(methylcarbamoyl) oxime]
- Mouse bait particles Rat Kill ([1]; Day 1): 0/5
- Mouse bait particles Rat Kill ([1]; Day 2): 0/5
- Mouse bait particles Rat Kill ([1]; Day 3): 0/5
- Mouse bait particles Rat Kill ([1]; Day 4): 0/5
- Mouse bait particles Rat Kill ([1]; Day 5 to 7): 0/5
- kill of rats feeding on the mouse bait ([1]; 0.1 mg particles, 50 ppm bait, seven days of feeding): not killed even after seven days
- death of mice ([2]; 100 ppm aldicarb on 0.4 x 0.4 mm particles): All mice died
- Mouse Kill % [2, 16]: 100%
- Mouse Kill % [2, 17]: 30%
- Mouse Kill % ([2]; 100 ppm as HOMOGENEOUS): 0%
- Kill Rat (female Wistar rats; Day 1): 0 out of 5
- Kill Rat (female Wistar rats; Day 2): 0 out of 5
- Kill Rat (female Wistar rats; Day 3): 0 out of 5
- kills recorded (female Wistar rats; 100 ppm aldicarb, rats, after 3 days exposure): no kills
- Kill (male LACA mice [3]; [18]): 40%
- mice killed (total of Example 4) (male LACA mice [3]; [18]): 4 out of 10
- Kill (male LACA mice [3]; formulation A, one 0.5 mg particle per 10 grams of oatmeal, Day 1): 1 out of 10
- Rat Kill % [4, 16]: 0%
- Rat Kill % [4, 17]: 100%
- Rat Kill % ([4]; 100 ppm as HOMOGENEOUS): 0%
- Mouse bait particles Mouse Kill (male 12-18 gram LAC mice; Day 1): 4 out of 10
- Mouse bait particles Mouse Kill (male 12-18 gram LAC mice; Day 3): Remaining mouse died
- death of all animals (male 12-18 gram LAC mice; all mice feeding on the 0.1 mg particles, 50 ppm bait): died by the end of the third day
- Kill (%) (Rats [5]; 60—80 g Weaner RATS, particle 0.75 × 0.75 mm): 100%
- Kill (%) (Rats [5]; 60—80 g Weaner RATS, particle 1.0 × 1.0 mm): 100%
- Kill (%) (Rats [5]; 60—80 g Weaner RATS, particle 1.5 × 3.0 mm): 80%
- Kill (%) (Rats [5]; 300—400 g Adult RATS, particle 0.75 × 0.75 mm): 50%
- Kill (%) (Rats [5]; 300—400 g Adult RATS, particle 1.0 × 1.0 mm): 100%
- Kill (%) (Rats [5]; 300—400 g Adult RATS, particle 1.5 × 3.0 mm): 100%
- Kill [6]: All killed
- Kill Mouse (male LACA mice [7]; Day 1): 0 out of 10
- Kill Mouse (male LACA mice [7]; Day 2): 0 out of 10
- Kill Mouse (male LACA mice [7]; Day 3): 0 out of 10
- Kill Mouse (male LACA mice [7]; Day 4): 0 out of 10
- kills recorded (male LACA mice [7]; 100 ppm aldicarb, mice, after 4 days exposure): no kills
- death of rabbits [8]: No rabbits died
- mortality at 120 h (in vivo): 0%
- Rat bait particles Rat Kill ([9]; Day 1): 2 out of 5
- Rat bait particles Rat Kill ([9]; Day 3): Remaining rat died
- death of all animals ([9]; all rats feeding on the 1 mg particles, 50 ppm bait): died by the end of the third day
- Kill (male LACA mice [10]): 2 out of 5
- Kill (%) (mice [11]; 12—10 g. Weaner MICE, particle 0.2 × 0.5 mm): 60%
- Kill (%) (mice [11]; 12—10 g. Weaner MICE, particle 0.4 × 0.4 mm): 100%
- Kill (%) (mice [11]; 12—10 g. Weaner MICE, particle 0.5 × 0.5 mm): 70%
- Kill (%) (mice [11]; 12—10 g. Weaner MICE, particle 0.75 × 0.75 mm): 57%
- Kill (%) (mice [11]; 20—25 g Adult MICE, particle 0.2 × 0.5 mm): 0%
- Kill (%) (mice [11]; 20—25 g Adult MICE, particle 0.4 × 0.4 mm): 100%
- Kill (%) (mice [11]; 20—25 g Adult MICE, particle 0.5 × 0.5 mm): 100%
- Kill ([12]; Day 1): 3 out of 5
- Kill ([12]; Day 3): Remaining rat killed
- Kill (Wistar females; Day 1): 2 out of 5
- Kill (Wistar females; Day 3): Remaining rat killed
- Kill (male LACA mice [13]; formulation A 0.2 mg aldicarb particles, Example 5): 100%
- Kill (male LACA mice [13]; formulation A, one 0.2 mg particle per 2 grams of oatmeal, Day 1): 4 out of 10

Structure (SMILES): CC(=O)O[C@@H]1C[C@]2(O)[C@H](CC[C@]3(C)[C@@H](c4ccc(=O)oc4)CC[C@@]32O)[C@@]2(C)CC[C@H](O[C@@H]3O[C@H](CO)[C@@H](O)[C@H](O)[C@H]3O)C=C12 [SCILLIROSIDE, scilliroside]
- DAYS TO KILL (Rats [14]; bait conc. 50 ppm): 2 days
- Kill (%) (Rats [14]; bait conc. 50 ppm): 100%

Structure (SMILES): Cc1cc(N(C)C)nc(Cl)n1 [CRIMIDINE, 2 chloro-4-(dimethylamino)-6-methylpyrimidine]
- DAYS TO KILL (mice [15]): 5 days
- Kill (%) (mice [15]): 100%
- DAYS TO KILL (Rats [14]; bait conc. 250 ppm): 3 days
- Kill (%) (Rats [14]; bait conc. 250 ppm): 100%

Structure (SMILES): O=C(O)CF [SODIUM FLUOROACETATE, Sodium fluoroacetate]
- DAYS TO KILL (Rats [14]; bait conc. 250 ppm): 2 days
- Kill (%) (Rats [14]; bait conc. 250 ppm): 100%
